Test results published in US4057644A, “Active derivatives of methylamine in therapeutic compositions and methods of use” (priority 1976, dated 1977).
Like-named read-outs stand apart in the source and are kept apart here.

Columns and labels:
[1] = test system: tremorine-induced cholinergic effects; assay: Anti-tremorine test; type: in vivo, mice (male, OF1 strain); parameters: key to central cholinergic effects score (normal and provoked tremor): 0: no action; 1: slight action; 2: average action; 3: strong action; 4: very strong action; settings: for central cholinergic effects score (normal and provoked tremor): 20, 30 and 40 minutes after tremorine, printed as identical results; for antitremorine properties: mice, oral
Description: When injected into mice, tremorine produces peripheral effects i.e. weeping, sweating, salivation and diarrhoea and central effects i.e. tremor and akinesia. Such effects are due to an increase in the amount of intracerebral acetylcholine and serotonine.
Male mice of the OF1 strain weighing about 22 g were divided into batches of 10. […] Thirty minutes later a dose of 10 mg/kg of tremorine was injected by intraperitoneal route and, at different times after this injection, note was taken of the cholinergic effects on each animal in accordance with the following scale: […]

[2] = test system: electrocardiogram; assay: Electrocardiogram; type: in vivo; settings: dog, injected, 5 mg/kg
[3] = test system: norepinephrine effects on arterial pressure and nictitating membrane; settings: in vivo, iv
Description: (§1) A cat, anaesthetized with pentobarbital, received a sufficient dose of norepinephrine to increase arterial pressure but not sufficient to cause contraction of the nictitating membrane. Arterial pressure was measured at the carotid immediately after administration of the dose of norepinephrine.

[4] = test system: norepinephrine effects on arterial pressure and nictitating membrane; assay: Influence on peripheral noradrenergic phenomena (arterial pressure, nictitating membrane); settings: cat; for Contractile reaction of the nictitating membrane with electric stimulation / Contractile reaction of the nictitating membrane without electric stimulation / Increase in arterial pressure after injection of norepinephrine: i.v.
Description: as §1

[5] = test system: reserpine-induced catatonia; assay: Inhibition of reserpine-induced catatonia; type: in vivo, rat (male, OFA strain); settings: rat
Description: Ater sufficient doses of reserpine have been administered to the rat, a series of symptoms occur, more particularly ptosis, catatonia and a drop in central temperature. These symptoms are caused by the depletion of the intrangranular reserve pool of biogenetic amines at the synaptic terminals.
An oral dose of the compound to be studied in aqueous solution was administered to batches of 10 male rats of the OFA strain weighing about 150 to 200 g. Thirty minutes later a dose of 5 mg/kg of reserpine was given by intraperitoneal route. Three hours after the injection of reserpine, the animals were suspended by the four paws to a horizontally stretched wire fixed at 15 cm from the ground. The catatonic animals were those which maintained the position so given for at least 30 seconds. […] The maximum score was therefore 10 per batch. An identical trial was undertaken with control animals which received reserpine but none of the compounds being studied.

[6] = test system: neuroleptic-induced catatonia (prochlorperazine); assay: Inhibition of neuroleptic-induced catatonia; type: in vivo, rat (male, OFA strain); settings: rat, oral; versus amantadine
Description: The blocking of dopaminergic receptors by neuroleptics in the extra-pyramidal system induces catatonia in the rat. Catatonia is differentiated from sedative properties by means of the test used hereabove for reserpine-induced catatonia. The same system of scoring was also employed in the present case.
An oral dose of the compound to be studied in aqueous solution was administered to batches of 10 male rats of the OFA strain weighing about 150 to 200 g.
Three hours after the injection of this latter compound, catatonia was measured. An identical trial was also carried out with control animals which received prochlorperazine but none of the compounds under study.

[7] = test system: catalepsy; assay: Inhibition of prochlorperazine-induced catalepsy (crossing of homolateral paws); type: in vivo; settings: Rattus norvegicus, po, 3 h, read-out: dose giving complete inhibition of the catalepsy
Text: […]. These trails involved catalepsy as evidenced by the crossing of the animal's homolateral paws.

[8] = test system: reserpine-induced catatonia; assay: Suppression of reserpine-induced catatonia (curative treatment); type: in vivo, rat (male, OFA strain); settings: 2.5 and 5 mg/kg oral, versus amantadine 80 mg/kg
Description: Batches of 5 male rats of the OFA strain, weighing 150 to 200 g were given 5 mg/kg of reserpine by intraperitoneal route. One hour and 45 minutes later, namely when the animals were in state of catatonia, an aqueous dose of the compound to be studied was administered by oral route to all the animals with the exception of the control group.
The progress of the catatonia was then noted following the scale used in the tests described hereabove.
The maximum score was thus 5 per batch which means that all the animals of the batch were considered to be still in a state of catatonia.

[9] = test system: neuroleptic-induced catatonia (prochlorperazine); assay: Suppression of neuroleptic-induced catatonia (curative treatment); type: in vivo, rat (male, OFA strain); settings: 5 mg/kg, versus amantadine 80 mg/kg
Description: Fifty-five minutes later, an oral dose in aqueous solution of the compound to be studied was administered to all the animals with the exception of the control group. The progress of the catatonia was noted following the same scale as that used in the tests described above.

[10] = test system: isolated duodenum of the rat; assay: MAGNUS test, inhibition of acetylcholine spasm in vitro (cholinolytic/spasmolytic)
Text: This test consists in determining the dose of acetylcholine which, when added to the bath, provokes spasm of the isolated duodenum of the rat. The next step consists in determining the dose of the compound under study which, when added to the bath 30 seconds before the acetylcholine, reduces the spasm.

[11] = Spasmolytic activity in vivo; settings: at doses well below the toxic dose
[12] = Anti-cholinergic (cholinolytic) activity
[13] = J. Amer. Chem. Soc., 71, 3352 (1949); cited from earlier work
[14] = J. Amer. Chem. Soc., 71, 3352 (1949); cited from earlier work; remark: listed apart in the source

Q: What does the source list for NC12CC3CC(CC(C3)C1)C2 [Amantadine, 1-amino-adamantane]?
A: central cholinergic effects score (normal and provoked tremor) ([1]; 40 mg/kg oral): 4; antitremorine properties [1]: devoid of antitremorine properties; effect on the electrocardiogram / cardiac rhythm [2]: provokes cardiac arrhythmia due to ventricular extrasystoles; dose from which exogenous norepinephrine is potentiated ([3]; cat): ≥ 1 mg/kg; dose from which ganglioplegic properties are shown ([3]; cat): ≥ 5 mg/kg; Contractile reaction of the nictitating membrane with electric stimulation ([3]; 0.1 mg/kg): 20 mm; Contractile reaction of the nictitating membrane without electric stimulation ([3]; 0.1 mg/kg): 0 mm; Increase in arterial pressure after injection of norepinephrine ([3]; 0.1 mg/kg): 29 mm Hg; Contractile reaction of the nictitating membrane with electric stimulation ([3]; 1 mg/kg): 20 mm; Contractile reaction of the nictitating membrane without electric stimulation ([3]; 1 mg/kg): 3 mm; Increase in arterial pressure after injection of norepinephrine ([3]; 1 mg/kg): 35 mm Hg; Contractile reaction of the nictitating membrane with electric stimulation ([3]; 3 mg/kg): 16 mm; Contractile reaction of the nictitating membrane without electric stimulation ([3]; 3 mg/kg): 4.4 mm; Increase in arterial pressure after injection of norepinephrine ([3]; 3 mg/kg): 35 mm Hg; Contractile reaction of the nictitating membrane with electric stimulation ([3]; 5 mg/kg): 10 mm; Contractile reaction of the nictitating membrane without electric stimulation ([3]; 5 mg/kg): 5.9 mm; Increase in arterial pressure after injection of norepinephrine ([3]; 5 mg/kg): 59 mm Hg; Contractile reaction of the nictitating membrane with electric stimulation ([3]; 10 mg/kg): 4 mm; Contractile reaction of the nictitating membrane without electric stimulation ([3]; 10 mg/kg): 7.5 mm; Increase in arterial pressure after injection of norepinephrine ([3]; 10 mg/kg): 57 mm Hg; own effect on contractile reactions of the nictitating membrane [4]: stimulates the contractile reactions of the nictitating membrane; potentiation of exogenous norepinephrine / peripheral adrenergic effects [4]: potentiates the peripheral adrenergic effects; potentiation of the effects of the electric stimulation [4]: does not potentiate

Q: Which “degree of activity (pharmacological trials)” value ([5]; in vivo) does the source give for CCCC(N)(CCC)CCC [Compound 1] here?
A: Its value is “marked degree of activity”.

Q: And the “dose of equal activity compared with amantadine (reserpine-induced catatonia)” value ([5]; oral, versus amantadine)?
A: Its value is “twenty times inferior”.

Q: And the “activity compared with amantadine (neuroleptic-induced catatonia)” value [6]?
A: The value was “twenty times more active”.

Q: And the ED100 [7]?
A: Its ED100 is 5 mg/kg.

Q: And the “rapidity of suppression of reserpine-induced catatonia” value [8]?
A: Its value is “more rapidly”.

Q: And the “rapidity of action against neuroleptic-induced catatonia” value [9]?
A: Its value is “more rapidly”.

Q: And the “spasmolytic / cholinolytic activity in vitro” value [10]?
A: The value was “virtually non-existent”.

Q: And the “spasmolytic / cholinolytic activity in vitro” value ([10]; listed as tri-n-propylmethylamine)?
A: Its value is “very weak, in fact practically non-existent”.

Q: And the “central cholinergic effects score (normal and provoked tremor)” value ([1]; 5 mg/kg oral)?
A: The value was 4.

Q: What about the antitremorine properties [1] of the same compound?
A: The antitremorine properties was “devoid of antitremorine properties”.

Q: And the “spasmolytic activity in vivo” value [11]?
A: The value was “non-existent”.

Q: And the “anti-cholinergic (cholinolytic) activity” value [12]?
A: The value was “devoid of anti-cholinergic activity”.

Q: And the “spasmolytic activity versus the corresponding trialkylethylamines” value [13]?
A: Its value is “less spasmolytic”.

Q: And the “toxicity versus the corresponding trialkylethylamines” value [14]?
A: The value was “more toxic”.

Q: What about the “potentiation of endogenous norepinephrine” value [4] of the same compound?
A: The value was “does not potentiate”.

Q: And the “potentiation of exogenous norepinephrine / peripheral adrenergic effects” value [4]?
A: Its value is “does not potentiate”.

Q: And the “Contractile reaction of the nictitating membrane with electric stimulation” value (“Contractile reaction … with electric stimulation” below) ([4]; cumulative dose 0.1 mg/kg)?
A: Its value is 15 mm.

Q: And the “Contractile reaction of the nictitating membrane without electric stimulation” value ([4]; cumulative dose 0.1 mg/kg)?
A: Its value is 0 mm.

Q: And the “Increase in arterial pressure after injection of norepinephrine” value (from here on “Increase in arterial pressure”) ([4]; cumulative dose 0.1 mg/kg)?
A: Its value is 18 mm Hg.

Q: What about the “Contractile reaction … with electric stimulation” value ([4]; cumulative dose 1 mg/kg) of the same compound?
A: Its value is 16 mm.

Q: And the “Contractile reaction of the nictitating membrane without electric stimulation” value ([4]; cumulative dose 1 mg/kg)?
A: Its value is 0 mm.

Q: And the “Increase in arterial pressure” value ([4]; cumulative dose 1 mg/kg)?
A: Its value is 25 mm Hg.

Q: And the “Contractile reaction … with electric stimulation” value ([4]; cumulative dose 3 mg/kg)?
A: The value was 17 mm.

Q: What about the “Contractile reaction of the nictitating membrane without electric stimulation” value ([4]; cumulative dose 3 mg/kg) of the same compound?
A: The value was 0 mm.

Q: What about the “Increase in arterial pressure” value ([4]; cumulative dose 3 mg/kg) of the same compound?
A: The value was 29 mm Hg.

Q: And the “Contractile reaction … with electric stimulation” value ([4]; cumulative dose 5 mg/kg)?
A: The value was 16 mm.

Q: And the “Contractile reaction of the nictitating membrane without electric stimulation” value ([4]; cumulative dose 5 mg/kg)?
A: The value was 0 mm.

Q: What about the “Increase in arterial pressure” value ([4]; cumulative dose 5 mg/kg) of the same compound?
A: The value was 25 mm Hg.

Q: What about the “Contractile reaction … with electric stimulation” value ([4]; cumulative dose 10 mg/kg) of the same compound?
A: The value was 12 mm.

Q: And the “Contractile reaction of the nictitating membrane without electric stimulation” value ([4]; cumulative dose 10 mg/kg)?
A: The value was 0 mm.

Q: What about the “Increase in arterial pressure” value ([4]; cumulative dose 10 mg/kg) of the same compound?
A: The value was 22 mm Hg.

Q: What about the “potentiation of exogenous norepinephrine / peripheral adrenergic effects” value ([4]; listed as preferred compound of the invention) of the same compound?
A: Its value is “does not potentiate the peripheral effects of norepinephrine”.
